Experimental data published in US7465558B2, “Perfusion system and apparatus for automated multi-channel patch-clamp recordings utilizing inside-out whole-cell configuration” (Wyeth, priority 2004, dated 2008).
Entries after “also recorded” stand apart in the source; their conditions may differ.

Tested on: outward potassium currents
Experiment: inside-out whole-cell patch clamp recording of outward potassium currents
Type: cell-based
Description: These currents were elicited by a test voltage of+40 mV preceded by a 500 ms long prepulse to−110 mV from a holding potential of−70 mV. […] Current traces were obtained in 5 minute time intervals.
FIG. 14 illustrates a graph showing outward potassium currents with test compounds according to an embodiment of the invention. […] Each test increment followed a 0.5 second long hyperpolarizing prepulse to−110 mV, while keeping the membrane potential at−70 mV between pulses. In the first (left-most) plot, measurements of current were taken while the cell was bathed in a control solution. The cell was then placed in a 10 mM 4-AP bath solution, and the measurements of the second (middle) plot were recorded. The chemical called 4-AP is a pharmacological blocker of these ion channels. The cell was then washed of the 4-AP solution, and the cell was again bathed in the control solution. Measurements were recorded as in the first and second plots, and the results are shown in the third (right-most) plot. For purposes of an inside-out whole cell patch clamp measurement, the control and 4-AP baths represented the intracellular region.
FIG. 15 illustrates a graph showing potassium current amplitude (I) behavior as a function of applied membrane voltages (V) according to an embodiment of the invention. […] Here, the black square points correspond to the left-most plot in FIG. 14, the black circles correspond to the center plot of FIG. 14 showing the reduced potassium current in the presence of 10 mM 4-AP bath solution, and the white circles correspond to measurements after the 4-AP was washed away in the right-most plot of FIG. 14.
This current is approximately 50% lower than in the left and right plots, which correspond to measurements in the control solution before and after drug action, respectively.

Nc1ccncc1 [4-AP]
block of potassium current amplitude (10 mM 4-AP bath solution representing the intracellular region, first cell, FIG. 14): about 50%
current across the membrane relative to current in control solution (10 mM 4-AP bath solution, first cell, current amplitude versus membrane voltage, FIG. 15): less than 50%
reversibility of the effect with wash-out perfusion (first cell, after washing and return to control solution, FIG. 14/15): fully (or at least substantially) reversible; also recorded: reversible process
current lower than in control solution before and after drug action (second cell, in the presence of 4-AP, FIG. 16): approximately 50%
current amplitude after washing compared with control substance (second cell, wash-out, FIG. 17): nearly equal
